Measurements from patent US12396984B2, “Managing microbial dysbiosis with temocillin” (Entasis Therapeutics, Inc., priority 2019, dated 2025).
≈ marks a conversion by molar mass, not a printed value. Where two headings read alike, the source gives them in different places.

How the values were obtained:
[1] = test system: Crohn's AIEC Isolates; conditions: AIEC Crohn's clinical isolates
[2] = test system: ATCC 12290 Bacteroides thetaiotaomicron; assay: microbe, parasite or virus in culture; type: cell-based
Description: (§1) Representatives of human gut anaerobic commensals belonging to the 3 major phyla, Firmicutes, Actinobacteria and Bacteroidetes were tested in standard agar-dilution antibacterial assays run under anaerobic conditions. Firmicutes and Actinobacteria are part of the healthy human gut and their levels are compromised in Crohn's patients.

[3] = test system: Firmicutes, Actinobacteria and Bacteroidetes; assay: Agar-dilution antibacterial assay, human gut anaerobic commensals (panel summary); type: cell-based; conditions: for antibacterial activity against firmicutes, actinobacteria and bacteroidetes (normal GI flora): summary in words
Description: as §1

[4] = test system: AIEC strain (Phylotype D); assay: GI AIEC decolonization murine model; type: in vivo, C57BL/6J mice; conditions: 30 mg/kg by oral gavage, FIG. 1
Description: A GI AIEC decolonization murine model studies were performed using a previously published murine model as the basis and run in accordance with animal ethical guidelines at an external contract research organization. Healthy C57BL/6J mice were first administered streptomycin by oral gavage. An AIEC strain (Phylotype D) was then administered at approximately 1-5×10^6 cfu per mouse by oral gavage and fecal pellets were enumerated for AIEC burden. Upon stable colonization (usually after 48 h post-AIEC administration), mice were sorted into three groups of 4 animals each. […] The third group was the control and was given an equivalent volume of sterile saline by oral gavage. Fecal pellets were recovered at various times as indicated on the X-axis of FIG. 1 and AIEC burden quantified by dilution and plating. Two successive fecal pellets were recovered from each mouse per group to sufficiently power the data.

[5] = test system: Crohn's AIEC Isolates; assay: microbe, parasite or virus in culture; conditions: Escherichia coli
[6] = test system: gut microbiome; assay: Post-treatment measurement of microbiome health (16S rRNA gene sequencing of fecal pellets); type: in vivo, mice; conditions: 30 mg/kg oral gavage once a day for 3 days, p<0.05
Description: Mice were dosed once a day for 3 consecutive days post AIEC stable GI colonization. Fecal pellets from four mice (1-2 per mouse) were pooled and subjected to bacterial DNA enrichment and analyzed using the Illumina MiSeq 2. Bacterial abundance and diversity was quantified using 16S rRNA gene sequencing data, analyzed and compared with naïve mice.

[7] = test system: MMX 10069 Bifidobacterium adolescentis; assay: Agar-dilution antibacterial assay under anaerobic conditions; type: cell-based; conditions: Actinobacteria
Description: as §1

[8] = test system: MMX 1722 Lactobacillus casei; assay: as above; type: cell-based; conditions: Lacticaseibacillus casei, Firmicutes
Description: as §1

[9] = test system: MMX 9711 Bacteroides salyersiae; assay: as above; type: cell-based; conditions: Bacteroidetes
Description: as §1

[10] = test system: ATCC 15702 Bifidobacterium infantis; assay: as above; type: cell-based; conditions: ATCC15702, Actinobacteria
Description: as §1

[11] = test system: MMX 9797 Clostridium innocuum; assay: as above; type: cell-based; conditions: Firmicutes
Description: as §1

[12] = test system: ATCC 25986 Collinsella aerofaciens; assay: as above; type: cell-based; conditions: ATCC25986, Actinobacteria
Description: as §1

[13] = test system: MMX 3478 Bacteroides fragilis; assay: as above; type: cell-based; conditions: Bacteroidetes
Description: as §1

[14] = test system: MMX 6660 Streptococcus intermedius; assay: as above; type: cell-based; conditions: Firmicutes
Description: as §1

[15] = test system: ATCC 23272 Lactobacillus reuteri; assay: as above; type: cell-based; conditions: Limosilactobacillus reuteri, ATCC23272, Firmicutes
Description: as §1

[16] = ATCC12290, Bacteroidetes, anaerobic agar dilution, read-out: MIC

Compound | MIC [2, 16] [µg/mL] | antibacterial activity against firmicutes, actinobacteria and bacteroidetes (normal GI flora) [3] | MIC [7] [µg/mL] | MIC [8] [µg/mL] | MIC [9] [µg/mL] | MIC [10] [µg/mL] | MIC [11] [µg/mL] | MIC [12] [µg/mL] | MIC [13] [µg/mL] | MIC [14] [µg/mL] | MIC [15] [µg/mL] | also measured
CO[C@@]1(NC(=O)C(C(=O)O)c2ccsc2)C(=O)N2[C@@H](C(=O)O)C(C)(C)S[C@@H]21 (stereo partly drawn) [Temocillin, temocillin] | > 256 | little or no effect on the normal GI flora | > 256 | > 256 | > 256 | > 256 | > 256 | > 256 | 256 (≈ 618 µM) | > 256 | > 256 | antibacterial activity vs. ciprofloxacin resistant isolates [1]: maintains antibacterial activity vs. ciprofloxacin resistant isolates; MIC ([3]; certain firmicutes, actinobacteria and bacteroidetes): > 256 µg/mL; AIEC burden in feces (log10 bacterial burden) [4]: effective at lowering AIEC burden in the murine GI tract and performed as well as the current standard-of-care antibiotic, ciprofloxacin; AIEC burden in feces (log10 bacterial burden) ([4]; listed as temocillin): effective at lowering the AIEC burden in the murine GI tract; AIEC burden after cessation of treatment (rebound) ([4]; post-treatment): effective at maintaining the AIEC burden low for days after cessation of treatment; time AIEC bacterial growth remained low after treatment ([4]; post-treatment): at least 7 days; MIC50 [5]: 4 to 8 µg/mL (≈ 9.65 to 19.3 µM); MIC ([5]; Crohn's AIEC isolate #14): 16 µg/mL (≈ 38.6 µM); MIC ([5]; Crohn's AIEC isolate #32): 4 µg/mL (≈ 9.65 µM); MIC ([5]; Crohn's AIEC isolate #35): 16 µg/mL (≈ 38.6 µM); MIC ([5]; Crohn's AIEC isolate #40): 8 µg/mL (≈ 19.3 µM); MIC ([5]; Crohn's AIEC isolate #49): 4 µg/mL (≈ 9.65 µM); MIC ([5]; Crohn's AIEC isolate #51): 8 µg/mL (≈ 19.3 µM); richness (number of OTUs) ([6]; FIG. 2A): comparable to the untreated (naive) mice and were higher than ciprofloxacin; diversity (Shannon index) ([6]; FIG. 2B): comparable to the untreated (naive) mice and were higher than ciprofloxacin
CO[C@H]1/C=C/O[C@@]2(C)Oc3c(C)c(O)c4c(O)c(c5c(nc6cc(C)ccn65)c4c3C2=O)NC(=O)/C(C)=C\C=C\[C@H](C)[C@H](O)[C@@H](C)[C@@H](O)[C@@H](C)[C@H](OC(C)=O)[C@@H]1C [Rifaximin] | ≤ 0.03 | broad potent antibacterial activities | 0.5 (≈ 0.636 µM) | 0.25 (≈ 0.318 µM) | 0.5 (≈ 0.636 µM) | 0.125 (≈ 0.159 µM) | > 32 | ≤ 0.03 | 0.25 (≈ 0.318 µM) | 0.5 (≈ 0.636 µM) | 0.06 (≈ 0.0763 µM) | 
Cc1ncc([N+](=O)[O-])n1CCO [Metronidazole] |  | broad potent antibacterial activities | 8 (≈ 46.7 µM) | > 64 | 2 (≈ 11.7 µM) | 8 (≈ 46.7 µM) | 1 (≈ 5.84 µM) | 1 (≈ 5.84 µM) | 8 (≈ 46.7 µM) | > 64 | > 64 | MIC ([2]; ATCC12290): 0.25 µg/mL (≈ 1.46 µM)
O=C(O)c1cn(C2CC2)c2cc(N3CCNCC3)c(F)cc2c1=O [Ciprofloxacin] |  | broad potent antibacterial activities | 32 (≈ 96.6 µM) | 1 (≈ 3.02 µM) | 16 (≈ 48.3 µM) | 4 (≈ 12.1 µM) |  | 0.5 (≈ 1.51 µM) | 16 (≈ 48.3 µM) | 1 (≈ 3.02 µM) | 32 (≈ 96.6 µM) | 
